For 38 compounds, Ki results are on record in patent US20060063932A1, “Aminoalkylpyrrolidine serotonin receptor ligands and compositions, their pharmaceutical uses, and methods for their synthesis” (priority 2000, published 2006).

Like-named read-outs stand apart in the source and are kept apart here.

For one assay, the target named is human 5-HT2a receptors (Homo sapiens, UniProt P28223). The assay can be described thus: Competition radioligand binding, h5-HT2a ([3H]Ketanserin).
Assay [1] has as its target human D2S dopamine (hD2S-DA) receptors (Homo sapiens, UniProt P14416). Kind of assay: Competition radioligand binding, hD2s DA ([3H]Spiperone).
For a further assay, the target named is T1, human 5-HT1a receptors (Homo sapiens, UniProt P08908).
T1 construct: expressed in transfected cells; host or cells: CHO K1 cells
T1 sequence (P08908 1-422): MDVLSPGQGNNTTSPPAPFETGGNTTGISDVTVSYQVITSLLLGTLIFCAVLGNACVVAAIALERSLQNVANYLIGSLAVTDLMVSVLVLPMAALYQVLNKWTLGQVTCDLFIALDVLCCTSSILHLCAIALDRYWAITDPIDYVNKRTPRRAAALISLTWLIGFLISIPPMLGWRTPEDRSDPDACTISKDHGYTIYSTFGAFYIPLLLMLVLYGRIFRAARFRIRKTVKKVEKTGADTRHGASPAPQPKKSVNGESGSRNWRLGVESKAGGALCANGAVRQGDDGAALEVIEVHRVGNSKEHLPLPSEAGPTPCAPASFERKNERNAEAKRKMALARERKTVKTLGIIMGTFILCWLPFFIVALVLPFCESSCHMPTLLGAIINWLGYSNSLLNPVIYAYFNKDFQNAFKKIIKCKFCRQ
Kind of assay: Competition radioligand binding, h5-HT1a ([3H]5-CT). The note with it: membranes of CHO K1 cells, 1 hr RT.

The target in assay [2] is T2, human 5-HT7B (h5-HT7b) receptors (Homo sapiens, UniProt P34969).
T2 construct: expressed in transfected cells
T2 sequence (P34969 1-432 limits assumed): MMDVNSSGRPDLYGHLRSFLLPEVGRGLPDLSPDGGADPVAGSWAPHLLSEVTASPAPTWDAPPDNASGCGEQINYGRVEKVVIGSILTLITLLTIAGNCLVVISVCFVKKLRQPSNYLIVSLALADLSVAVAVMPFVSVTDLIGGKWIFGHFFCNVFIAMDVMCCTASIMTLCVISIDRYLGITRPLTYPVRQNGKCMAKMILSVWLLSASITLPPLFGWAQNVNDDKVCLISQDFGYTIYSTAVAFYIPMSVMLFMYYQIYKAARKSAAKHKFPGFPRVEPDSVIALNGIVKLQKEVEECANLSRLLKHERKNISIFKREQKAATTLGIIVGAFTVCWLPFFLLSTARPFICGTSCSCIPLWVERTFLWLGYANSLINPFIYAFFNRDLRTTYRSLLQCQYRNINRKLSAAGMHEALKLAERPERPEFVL
Kind of assay: Competition radioligand binding, h5-HT7b ([3H]5-CT). The note with it: membranes of HEK 293 cells, 2 hr 37° C., read-out: Ki (nM) 5-HT7.

In assay [3] the target is T3, human 5-HT6 (h5-HT6) receptors (Homo sapiens, UniProt P50406).
T3 construct: purchased Receptor Biology, Inc. (Beltsville, Md.); host or cells: HEK-293 cells
T3 sequence (P50406 whole entry): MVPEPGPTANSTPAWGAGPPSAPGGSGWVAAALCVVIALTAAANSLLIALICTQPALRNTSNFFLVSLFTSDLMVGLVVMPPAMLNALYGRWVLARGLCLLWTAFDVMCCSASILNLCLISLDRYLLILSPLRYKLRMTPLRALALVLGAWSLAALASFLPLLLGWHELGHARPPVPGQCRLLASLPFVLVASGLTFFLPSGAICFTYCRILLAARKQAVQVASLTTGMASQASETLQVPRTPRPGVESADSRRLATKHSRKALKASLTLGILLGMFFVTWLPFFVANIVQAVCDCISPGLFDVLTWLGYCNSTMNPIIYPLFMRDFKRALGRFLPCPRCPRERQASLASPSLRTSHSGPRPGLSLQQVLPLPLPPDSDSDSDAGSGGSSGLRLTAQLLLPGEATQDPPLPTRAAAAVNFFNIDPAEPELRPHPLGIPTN
The assay can be described thus: Competition radioligand binding, h5-HT6 ([3H]LSD). The note with it: membranes of HEK-293 cells, 1 hr RT.

The mark [4] stands for this setting: read-out: Ki (nM) 5-HT2A, membranes of CHO K1 cells, [3H]Ketanserin, 1 hr 37° C.
[5] abbreviates: read-out: Ki (nM) D2, membranes of A9 L cells, [3H]Spiperone, 2 hr RT.

Sequence of human D2S dopamine (hD2S-DA) receptors (P14416 1-414 isoform P14416-2): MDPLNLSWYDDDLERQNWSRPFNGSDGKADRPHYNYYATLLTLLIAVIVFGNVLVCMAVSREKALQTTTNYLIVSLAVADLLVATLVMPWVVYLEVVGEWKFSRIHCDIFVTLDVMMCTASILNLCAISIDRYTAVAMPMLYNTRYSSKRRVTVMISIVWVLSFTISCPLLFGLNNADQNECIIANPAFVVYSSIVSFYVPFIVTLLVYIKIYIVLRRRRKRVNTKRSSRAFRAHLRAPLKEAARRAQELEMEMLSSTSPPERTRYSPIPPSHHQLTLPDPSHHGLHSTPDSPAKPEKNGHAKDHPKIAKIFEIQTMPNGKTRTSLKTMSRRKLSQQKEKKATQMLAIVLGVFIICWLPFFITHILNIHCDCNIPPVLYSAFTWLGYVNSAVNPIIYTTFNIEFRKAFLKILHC
Sequence of human 5-HT2a receptors (P28223 whole entry): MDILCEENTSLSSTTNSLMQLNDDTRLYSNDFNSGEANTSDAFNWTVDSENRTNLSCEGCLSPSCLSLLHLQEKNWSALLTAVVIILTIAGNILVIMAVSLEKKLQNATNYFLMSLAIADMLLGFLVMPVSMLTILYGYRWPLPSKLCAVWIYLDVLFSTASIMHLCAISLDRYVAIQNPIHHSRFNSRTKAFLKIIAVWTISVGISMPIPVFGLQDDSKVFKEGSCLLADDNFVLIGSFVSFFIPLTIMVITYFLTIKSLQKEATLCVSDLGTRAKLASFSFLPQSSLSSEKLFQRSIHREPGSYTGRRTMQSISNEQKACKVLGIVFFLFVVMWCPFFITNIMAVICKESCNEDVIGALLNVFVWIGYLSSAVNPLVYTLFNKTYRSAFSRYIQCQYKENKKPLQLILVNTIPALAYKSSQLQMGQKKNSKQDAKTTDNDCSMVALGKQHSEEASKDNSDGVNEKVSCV

Usually Ki stands for the equilibrium dissociation constant of an inhibitor or competing ligand from its target. `Cc1ccc(CN(CC[C@@H]2CCCN2C)Cc2ccc(C)cc2)cc1` [Example 7]: the Ki on human 5-HT2a receptors is 17 nM; in assay [1] it was 221 nM; at human 5-HT1a receptors, 2850 nM; in assay [2], 2.1 nM; in assay [3], 63 nM.
`CN1CCC[C@H]1CCN(Cc1cccc(C(N)=O)c1)Cc1cccc(C(N)=O)c1` [Example 9]: the Ki in assay [2] was 5100 nM.
As to `CN1CCC[C@H]1CCN(Cc1cccc(O)c1)Cc1cccc(O)c1` [Example 2, (S)-Di-(3-hydroxybenzyl)-2-aminoethyl-N-methylpyrrolidine], the Ki at human 5-HT2a receptors (setting [4]) was 500 nM; in assay [1] (setting [5]), over 2500 nM; at human 5-HT1a receptors, 3500 nM; in assay [2], 9.7 nM; in assay [3], 640 nM.
Consider `COc1cccc(CN(CCC2CCCN2C)Cc2ccccc2)c1` (stereo not drawn) [Example 33], for which the Ki on human 5-HT2a receptors was 51 nM; in assay [1], 780 nM; on human 5-HT1a receptors, over 4000 nM; in assay [2] it was 56 nM; in assay [3] it was 35 nM.
In the case of `CN1CCC[C@H]1CCN(Cc1ccc(Cl)cc1)Cc1ccccc1Cl` [Example 44], in assay [2], the Ki was determined as 260 nM.
Take `CN1CCCC1CCN(Cc1ccccc1)Cc1ccc(C(C)(C)C)cc1` (stereo not drawn) [Example 31]: the Ki at human 5-HT2a receptors is 130 nM; in assay [1] it was 1210 nM; in assay [2] it was 66 nM; in assay [3], 45 nM.
As for `CN1CCCC1CCN(CCc1ccccc1)CCc1ccccc1` (racemic) [Example 8], the Ki in assay [2] turned out to be 3200 nM.
For `Cc1ccc(CN(CC[C@@H]2CCCN2C)Cc2ccccc2)cc1` [Example 22], the Ki was 44 nM on human 5-HT2a receptors; 220 nM in assay [1]; over 4000 nM on human 5-HT1a receptors; 8.3 nM in assay [2]; 39 nM in assay [3].
As for `Cc1cc(CN(CC[C@@H]2CCCN2C)Cc2ccc(Cl)cc2)cc(C)c1O` [Example 48], the inhibitory constant (Ki) at human 5-HT2a receptors was 233 nM; in assay [1], over 2500 nM; on human 5-HT1a receptors, 3070 nM; in assay [2] it was 4.2 nM; in assay [3] it was 71 nM.
Regarding `CN1CCC[C@H]1CCN(Cc1ccc(Cl)cc1)Cc1ccc(O)c(Cl)c1` [Example 47], the inhibition constant Ki on human 5-HT2a receptors was 180 nM; in assay [1] it was 1010 nM; on human 5-HT1a receptors, over 4000 nM; in assay [2], 2.7 nM; in assay [3], 110 nM.
For `COc1ccc(CN(CC[C@@H]2CCCN2C)Cc2cccc(O)c2)cc1` [Example 36], the Ki on human 5-HT2a receptors was 200 nM; in assay [1] it was 2530 nM; on human 5-HT1a receptors it was over 4000 nM; in assay [2], 49 nM; in assay [3], 1580 nM.
For the compound “(S)-(3-Hydroxybenzyl)(4-chlorobenzyl)-2-aminoethyl-N-methylpyrrolidine [Example 19]”, the Ki at human 5-HT2a receptors (setting [4]) is 74 nM; in assay [1] (setting [5]) it was 1580 nM; at human 5-HT1a receptors, over 4000 nM; in assay [2], 2.7 nM; in assay [3], 210 nM.
Turning to `Cc1ccc(C)c(CN(CCC2CCCN2C)Cc2ccccc2)c1` (stereo not drawn) [Example 24], the Ki was 20 nM at human 5-HT2a receptors; 410 nM in assay [1]; over 4000 nM on human 5-HT1a receptors; 31 nM in assay [2]; 72 nM in assay [3].
Consider `CN1CCCC1CCN(Cc1ccccc1)Cc1ccc(F)cc1` (stereo not drawn) [Example 26], for which the Ki in assay [1] stood at 400 nM; in assay [2], 18 nM; in assay [3], 20 nM.
With `CN1CCC[C@H]1CCN(Cc1ccc(O)cc1)Cc1cccc(O)c1` [Example 20], the Ki at human 5-HT2a receptors is 540 nM; in assay [1], over 2500 nM; on human 5-HT1a receptors, over 4000 nM; in assay [2], 8.8 nM; in assay [3], 880 nM.
As for `CN1CCCC1CCN(Cc1ccccc1)Cc1cccc2ccccc12` (stereo not drawn) [Example 25], the Ki on human 5-HT2a receptors is 87 nM; in assay [1], 570 nM; on human 5-HT1a receptors it was over 4000 nM; in assay [2] it was 45 nM; in assay [3], 99 nM.
For `Cc1cc(CN(CC[C@@H]2CCCN2C)Cc2cccc(O)c2)cc(C)c1O` [Example 35], the Ki at human 5-HT2a receptors is 3470 nM; in assay [1] it was over 2500 nM; on human 5-HT1a receptors, over 4000 nM; in assay [2] it was 17 nM; in assay [3] it was 2710 nM.
The like results for `CN1CCC[C@H]1CCN(Cc1ccc(C(C)(C)C)cc1)Cc1cccc(O)c1` [Example 37] were, in that order, 160 nM, 2300 nM, over 4000 nM, 66 nM and 375 nM.
For the compound `Cc1c(CN(CC[C@@H]2CCCN2C)Cc2ccc(Cl)cc2)sc2ccccc12` [Example 52], the Ki at human 5-HT2a receptors was 76 nM; in assay [1] it was 1110 nM; on human 5-HT1a receptors, over 4000 nM; in assay [2] it was 27 nM; in assay [3] it was 310 nM.
As for `CSc1ccc(CN(CCC2CCCN2C)Cc2ccccc2)cc1` (stereo not drawn) [Example 27], the inhibition constant Ki in assay [2] amounted to 150 nM.
Take `Cc1ccc(CN(CCC2CCCN2C)Cc2ccc(C)cc2)cc1` (racemic) [Example 4]: the Ki on human 5-HT2a receptors amounted to 20 nM; in assay [1] it was 110 nM; in assay [2], 9.9 nM; in assay [3], 41 nM.
Turning to `Cc1cc(CN(CC[C@@H]2CCCN2C)Cc2ccc(Cl)cc2)oc1C` [Example 42], the Ki at human 5-HT2a receptors is 88 nM; in assay [1], over 2500 nM; on human 5-HT1a receptors it was over 4000 nM; in assay [2] it was 21 nM; in assay [3], 54 nM.
Consider `CC(C)c1ccc(CN(CC[C@@H]2CCCN2C)Cc2ccc(Cl)cc2)cc1` [Example 46], for which the Ki is 42 nM at human 5-HT2a receptors; 1110 nM in assay [1]; 3850 nM on human 5-HT1a receptors; 80 nM in assay [2]; 350 nM in assay [3].
Turning to `CN1CCC[C@H]1CCN(Cc1ccc(Cl)cc1)Cc1ccc(O)cc1Cl` [Example 39], the Ki was found to be 85 nM on human 5-HT2a receptors; 420 nM in assay [1]; 3920 nM at human 5-HT1a receptors; 0.91 nM in assay [2]; 49 nM in assay [3].
Consider `CN1CCC[C@H]1CCN(Cc1ccc(Cl)cc1)Cc1ccc(O)c([N+](=O)[O-])c1` [Example 51], for which, in assay [2], the Ki is 200 nM.
Regarding `CN1CCC[C@H]1CCN(Cc1ccc(Cl)cc1)CC1CC=CCC1` (stereo partly drawn) [Example 43], the Ki in assay [2] worked out at 180 nM.
Take `CN1CCC[C@@H]1CCN(Cc1cccc(O)c1)Cc1cccc(O)c1` [Example 10]: in assay [2], the Ki came to 1000 nM.
For `CCc1ccc(CN(CCC2CCCN2C)Cc2ccccc2)cc1` (stereo not drawn) [Example 28], the Ki is 73 nM on human 5-HT2a receptors; 270 nM in assay [1]; over 4000 nM at human 5-HT1a receptors; 19 nM in assay [2]; 91 nM in assay [3].
In the case of `CN1CCCC1CCN(Cc1ccccc1)Cc1c(Cl)cccc1Cl` (stereo not drawn) [Example 23], the Ki at human 5-HT2a receptors was 16 nM; in assay [1], 160 nM; on human 5-HT1a receptors, over 4000 nM; in assay [2], 28 nM; in assay [3], 47 nM.
On to `CN1CCC[C@H]1CN(Cc1ccccc1)Cc1ccccc1` [Example 55, (S)-Di-(benzyl)-2-aminomethyl-N-methylpyrrolidine], for which the Ki in assay [2] was 170 nM.
On to `CN1CCCC1CCN(Cc1ccccc1)Cc1cccc(O)c1` (stereo not drawn) [Example 29], for which the Ki is 69 nM at human 5-HT2a receptors; 1010 nM in assay [1]; over 4000 nM at human 5-HT1a receptors; 23 nM in assay [2]; 33 nM in assay [3].
In the case of `CN1CCCC1CCN(Cc1ccccc1)Cc1ccccc1` (racemic) [Example 12], the Ki is 360 nM in assay [1], 24 nM in assay [2] and 74 nM in assay [3].
For the compound `COc1cccc(CN(CC[C@@H]2CCCN2C)Cc2ccc(Cl)cc2)c1` [Example 41], the Ki on human 5-HT2a receptors was 39 nM; in assay [1] it was 1480 nM; at human 5-HT1a receptors, over 4000 nM; in assay [2] it was 6.6 nM; in assay [3], 83 nM.
As for `CN1CCC[C@H]1CCN(CCc1ccccc1)Cc1ccc(Cl)cc1` [Example 38], the inhibition constant (Ki) in assay [2] is 200 nM.
The same measure, in the same setting: to `C[C@H](CN(CC[C@@H]1CCCN1C)Cc1ccc(Cl)cc1)c1ccccc1` [Example 53] belongs 161 nM.
For `CC(C)c1ccc(CN(CCC2CCCN2C)Cc2ccccc2)cc1` (stereo not drawn) [Example 32], the Ki on human 5-HT2a receptors amounted to 11 nM; in assay [1], 850 nM; in assay [2], 36 nM; in assay [3] it was 71 nM.
On to `CN1CCCC1CCN(Cc1ccc(Cl)cc1)Cc1ccc(Cl)cc1` (racemic) [Example 5], for which the Ki at human 5-HT2a receptors came to 39 nM; on human 5-HT1a receptors it was 540 nM; in assay [2] it was 4.7 nM; in assay [3] it was 42 nM.
Take `CN1CCCC1CCN(Cc1cccc(O)c1)Cc1cccc(O)c1` (racemic) [Example 3]: the Ki on human 5-HT2a receptors is 2000 nM; in assay [1], over 2500 nM; in assay [2], 49 nM; in assay [3], 2640 nM.
